In this assay the test system is SKOV-3 cells. The assay is described as follows: Survival MTT assay, SKOV-3. Format: cell-based. As to conditions: Homo sapiens, SK-OV-3, 72 h. The protocol: One day prior the treatment with compound, 2000 to 4000 cells per well were plated in a tissue culture treated 96 well format dish with 100 ul of media and incubated at 37° C., 5% CO2. On the day of compound treatment, compounds were diluted with cell culture media to a working stock concentration of 2×. 100 uL of diluted compound were then added to each well. The treated plate was incubated for 72 h at 37° C., 5% CO2. Upon incubation, the cell viability was assessed as followed 20 uL of MTT reagent at 5 mg/ml were added per well to cell plate. The plate was incubated for 2 h at 37° C. in presence of 5% CO2. The supernatant was then removed from the plate and 100 uL of isopropanol were added. The absorbance was measured in a TECAN spectrophotometer at 570 nm. The percentage of viability was expressed in percentage of the signal obtained with non treated cells.
A general note: Formazan colour is commonly taken as a measure of viable cells.

Like-named read-outs stand apart in the source and are kept apart here. *1 amine or outer side, *2 acyl side, *3 side chain or, on linkers, in order; H or OH if unused. Where a SMILES comes first, the peptide text is derived from it. Bridges are numbered along the chain shown (N, C = ends). Roman numbers before positions name the chains, in order. [ ]: non-standard residue; d: D form. The star is where a group is joined. cisHyp = O=C(O)[C@@H]1C[C@H](O)CN1; pXylylene = c1cc(C[*:2])ccc1C[*:1]; NHPhenethyl = c1ccc(CCN*)cc1; Tle = CC(C)(C)[C@H](N)C(=O)O; NMeA = CN[C@@H](C)C(=O)O Bounds are passed on as bounds.

Usually EC50 stands for the concentration at which the effect is half-maximal. `CN[C@@H](C)C(=O)C[C@H](C(=O)N1C[C@@H](NC(=O)CCCCCCCC(=O)N[C@H]2C[C@@H](C(=O)N[C@@H]3CCCc4ccccc43)N(C(=O)[C@@H](NC(=O)[C@H](C)NC)C(C)(C)C)C2)C[C@H]1C(=O)N[C@@H]1CCCc2ccccc21)C(C)(C)C` [Compound 12]: where the note is “read-out: SKOV-3 EC50”, the EC50 was under 0.05 µM.

In the case of `CN[C@@H](C)C(=O)N[C@H](C(=O)N1CC(NC(=O)CCCCCC(=O)N[C@H]2C[C@@H](C(=O)N[C@@H]3CCCc4ccccc43)N(C(=O)[C@@H](NC(=O)[C@H](C)NC)C(C)(C)C)C2)C[C@H]1C(=O)NC1CCCc2ccccc21)C(C)(C)C` (stereo partly drawn) [Compound 13], under “read-out: SKOV-3 EC50”, the EC50 was under 0.05 µM.

On to `CN[C@@H](C)C(=O)N[C@H](C(=O)N1C[C@@H](NC(=O)CCCC(=O)N[C@H]2C[C@@H](C(=O)N[C@@H]3CCCc4ccccc43)N(C(=O)[C@@H](NC(=O)[C@H](C)NC)C(C)(C)C)C2)C[C@H]1C(=O)NC1CCCc2ccccc21)C(C)(C)C` (stereo partly drawn) [Compound 14], for which the EC50 (read-out: SKOV-3 EC50) was under 0.05 µM.

`CN[C@@H](C)C(=O)N[C@H](C(=O)N1C[C@@H](NC(=O)Cc2ccc(CC(=O)N[C@H]3C[C@@H](C(=O)N[C@@H]4CCCc5ccccc54)N(C(=O)[C@@H](NC(=O)[C@H](C)NC)C(C)(C)C)C3)cc2)C[C@H]1C(=O)N[C@@H]1CCCc2ccccc21)C(C)(C)C` [Compound 15]: the EC50 (read-out: SKOV-3 EC50) was under 0.05 µM.

Take `CN[C@@H](C)C(=O)N[C@H](C(=O)N1C[C@@H](NC(=O)c2ccc(Oc3ccc(C(=O)N[C@H]4C[C@@H](C(=O)N[C@@H]5CCCc6ccccc65)N(C(=O)[C@@H](NC(=O)[C@H](C)NC)C(C)(C)C)C4)cc3)cc2)C[C@H]1C(=O)N[C@@H]1CCCc2ccccc21)C(C)(C)C` [Compound 16]: where the note is “read-out: SKOV-3 EC50”, the concentration for a half-maximal effect (EC50) was under 0.05 µM.

With `CN[C@@H](C)C(=O)N[C@H](C(=O)N1C[C@@H](OCc2ccc(CO[C@H]3C[C@@H](C(=O)N[C@@H]4CCCc5ccccc54)N(C(=O)[C@@H](NC(=O)[C@H](C)NC)C(C)(C)C)C3)cc2)C[C@H]1C(=O)N[C@@H]1CCCc2ccccc21)C(C)(C)C` [Compound 17], the EC50 (read-out: SKOV-3 EC50) is under 0.05 µM.

With `CN[C@@H](C)C(=O)N[C@H](C(=O)N1C[C@@H](NC(=O)c2ccc(C(=O)N[C@H]3C[C@@H](C(=O)OC)N(C(=O)[C@@H](NC(=O)[C@H](C)NC)C(C)(C)C)C3)cc2)C[C@H]1C(=O)OC)C(C)(C)C` [Compound 18], for the setting “read-out: SKOV-3 EC50”, the 50% effective concentration (EC50) was over 1 µM.

On to `CN[C@@H](C)C(=O)N[C@H](C(=O)N1C[C@@H](NC(=O)c2ccc(C(=O)N[C@H]3C[C@@H](C(=O)NCCc4ccc(F)cc4)N(C(=O)[C@@H](NC(=O)[C@H](C)NC)C(C)(C)C)C3)cc2)C[C@H]1C(=O)NCCc1ccc(F)cc1)C(C)(C)C` [Compound 19], for which the concentration for a half-maximal effect (EC50) (read-out: SKOV-3 EC50) is under 0.05 µM.

Take `CN[C@@H](C)C(=O)N[C@H](C(=O)N1C[C@@H](NC(=O)c2ccc(C(=O)N[C@H]3C[C@@H](C(=O)NCCc4ccccc4)N(C(=O)[C@@H](NC(=O)[C@H](C)NC)C(C)(C)C)C3)cc2)C[C@H]1C(=O)NCCc1ccccc1)C(C)(C)C` [Compound 20]: the EC50 (read-out: SKOV-3 EC50) is under 0.05 µM.

`CN[C@@H](C)C(=O)N[C@H](C(=O)N1C[C@@H](NC(=O)c2ccc(C(=O)N[C@H]3C[C@@H](C(=O)NC[C@H](C)c4ccccc4)N(C(=O)[C@@H](NC(=O)[C@H](C)NC)C(C)(C)C)C3)cc2)C[C@H]1C(=O)NC[C@@H](C)c1ccccc1)C(C)(C)C` [Compound 21]: the EC50 (read-out: SKOV-3 EC50) was under 0.05 µM.

`CN[C@@H](C)C(=O)N[C@H](C(=O)N1C[C@@H](NC(=O)c2ccc(C(=O)N[C@H]3C[C@@H](C(=O)NC(C)C)N(C(=O)[C@@H](NC(=O)[C@H](C)NC)C(C)(C)C)C3)cc2)C[C@H]1C(=O)NC(C)C)C(C)(C)C` [Compound 22]: the EC50 (read-out: SKOV-3 EC50) was under 0.25 µM.

For `CN[C@@H](C)C(=O)N[C@H](C(=O)N1C[C@@H](NC(=O)c2ccc(C(=O)N[C@H]3C[C@@H](C(=O)N[C@@H]4CCCc5ccccc54)N(C(=O)[C@@H](NC(=O)[C@H](C)NC)C(C)(C)C)C3)cc2)C[C@H]1C(=O)N[C@H]1CCCc2ccccc21)C(C)(C)C` [Compound 23], for the setting “read-out: SKOV-3 EC50”, the concentration for a half-maximal effect (EC50) is under 0.05 µM.

Take `CN[C@@H](C)C(=O)N[C@H](C(=O)N1C[C@@H](NC(=O)c2ccc(C(=O)N[C@H]3C[C@@H](C(=O)NC(c4ccccc4)c4ccccc4)N(C(=O)[C@@H](NC(=O)[C@H](C)NC)C(C)(C)C)C3)cc2)C[C@H]1C(=O)NC(c1ccccc1)c1ccccc1)C(C)(C)C` [Compound 24]: under “read-out: SKOV-3 EC50”, the 50% effective concentration (EC50) is under 0.05 µM.

With `CN[C@@H](C)C(=O)N[C@H](C(=O)N1C[C@@H](NC(=O)c2ccc(C(=O)N[C@H]3C[C@@H](CN(CCc4ccccc4)C(C)=O)N(C(=O)[C@@H](NC(=O)[C@H](C)NC)C(C)(C)C)C3)cc2)C[C@H]1CN(CCc1ccccc1)C(C)=O)C(C)(C)C` [Compound 25], the EC50 (read-out: SKOV-3 EC50) was under 0.05 µM.

As to `CN[C@@H](C)C(=O)N[C@H](C(=O)N1C[C@@H](NC(=O)c2ccc(C(=O)N[C@H]3C[C@@H](CN(CCc4ccccc4)S(C)(=O)=O)N(C(=O)[C@@H](NC(=O)[C@H](C)NC)C(C)(C)C)C3)cc2)C[C@H]1CN(CCc1ccccc1)S(C)(=O)=O)C(C)(C)C` [Compound 26], the EC50 (read-out: SKOV-3 EC50) was under 0.25 µM.

Turning to `CN[C@@H](C)C(=O)N[C@H](C(=O)N1C[C@@H](NC(=O)c2ccc(C(=O)N[C@H]3C[C@@H](CN(CCc4ccccc4)C(=O)c4ccccc4)N(C(=O)[C@@H](NC(=O)[C@H](C)NC)C(C)(C)C)C3)cc2)C[C@H]1CN(CCc1ccccc1)C(=O)c1ccccc1)C(C)(C)C` [Compound 27], the EC50 (read-out: SKOV-3 EC50) is under 0.25 µM.

For `CN[C@@H](C)C(=O)N[C@H](C(=O)N1C[C@@H](NC(=O)c2ccc(C(=O)N[C@H]3C[C@@H](CN(CCc4ccc(F)cc4)C(C)=O)N(C(=O)[C@@H](NC(=O)[C@H](C)NC)C(C)(C)C)C3)cc2)C[C@H]1CN(CCc1ccc(F)cc1)C(C)=O)C(C)(C)C` [Compound 28], the EC50 (read-out: SKOV-3 EC50) is under 0.05 µM.

As to `CN[C@@H](C)C(=O)N[C@H](C(=O)N1C[C@@H](OCc2ccc(CO[C@H]3C[C@@H](C(=O)NCCc4ccccc4)N(C(=O)[C@@H](NC(=O)[C@H](C)NC)C(C)(C)C)C3)cc2)C[C@H]1C(=O)NCCc1ccccc1)C(C)(C)C` [Compound 29] (I: H-[NMeA]-[Tle]-[cisHyp]-NHPhenethyl / II: H-[NMeA]-[Tle]-[cisHyp]-NHPhenethyl; linker I:3-II:3 via pXylylene), the 50% effective concentration (EC50) (read-out: EC50 against SKOV3) was 0.088 µM and the EC50 (read-out: SKOV-3 EC50) is under 0.25 µM.

As for `CN[C@@H](C)C(=O)N[C@H](C(=O)N1C[C@@H](NC(=O)c2ccc(C(=O)N[C@H]3C[C@@H](CN(CCc4ccc(F)cc4)S(C)(=O)=O)N(C(=O)[C@@H](NC(=O)[C@H](C)NC)C(C)(C)C)C3)cc2)C[C@H]1CN(CCc1ccc(F)cc1)S(C)(=O)=O)C(C)(C)C` [Compound 30], the concentration giving a half-maximal response (EC50) is, setting by setting: (read-out: EC50 against SKOV3) 0.188 µM; (read-out: SKOV-3 EC50) over 1 µM.

In the case of `CN[C@@H](C)C(=O)N[C@H](C(=O)N1C[C@@H](NC(=O)c2ccc(C(=O)N[C@H]3C[C@@H](C(=O)NCC(c4ccccc4)c4ccccc4)N(C(=O)[C@@H](NC(=O)[C@H](C)NC)C(C)(C)C)C3)cc2)C[C@H]1C(=O)NCC(c1ccccc1)c1ccccc1)C(C)(C)C` [Compound 31], under “read-out: SKOV-3 EC50”, the half-maximal effective concentration (EC50) was under 0.25 µM.

With `CN[C@@H](C)C(=O)N[C@H](C(=O)N1C[C@@H](NC(=O)c2ccc(C(=O)N[C@H]3C[C@@H](C(=O)NCc4cccc5ccccc45)N(C(=O)[C@@H](NC(=O)[C@H](C)NC)C(C)(C)C)C3)cc2)C[C@H]1C(=O)NCc1cccc2ccccc12)C(C)(C)C` [Compound 32], the EC50 (read-out: SKOV-3 EC50) is under 0.25 µM.

With `CN[C@@H](C)C(=O)N[C@H](C(=O)N1C[C@@H](NS(=O)(=O)c2cccc(S(=O)(=O)N[C@H]3C[C@@H](C(=O)N[C@@H]4CCCc5ccccc54)N(C(=O)[C@@H](NC(=O)[C@H](C)NC)C(C)(C)C)C3)c2)C[C@H]1C(=O)N[C@@H]1CCCc2ccccc21)C(C)(C)C` [Compound 33], the EC50 (read-out: SKOV-3 EC50) was under 0.05 µM.

As for `CN[C@@H](C)C(=O)N[C@H](C(=O)N1C[C@@H](NC(=O)c2ccc(C(=O)N[C@H]3C[C@@H](C(=O)N[C@@H]4CCCc5ccccc54)N(C(=O)[C@@H](NC(=O)[C@H](C)NC)C(C)(C)C)C3)cc2)C[C@H]1C(=O)NC1CCCc2ccccc21)C(C)(C)C` (stereo partly drawn) [Compound 34], the EC50 (read-out: SKOV-3 EC50) is under 0.25 µM.

Regarding `CN[C@@H](C)C(=O)N[C@H](C(=O)N1C[C@@H](NC(=O)CNC(=O)c2ccc(C(=O)NCC(=O)N[C@H]3C[C@@H](C(=O)N[C@@H]4CCCc5ccccc54)N(C(=O)[C@@H](NC(=O)[C@H](C)NC)C(C)(C)C)C3)cc2)C[C@H]1C(=O)N[C@@H]1CCCc2ccccc21)C(C)(C)C` [Compound 35], for the setting “read-out: SKOV-3 EC50”, the EC50 was under 0.25 µM.

As to `CN[C@@H](C)C(=O)N[C@H](C(=O)N1C[C@@H](NC(=O)CNC(=O)C(=O)NCC(=O)N[C@H]2C[C@@H](C(=O)N[C@@H]3CCCc4ccccc43)N(C(=O)[C@@H](NC(=O)[C@H](C)NC)C(C)(C)C)C2)C[C@H]1C(=O)N[C@@H]1CCCc2ccccc21)C(C)(C)C` [Compound 36], the concentration giving a half-maximal response (EC50) (read-out: SKOV-3 EC50) was over 1 µM.

With `CN[C@@H](C)C(=O)NC(C(=O)N1C[C@@H](NC(=O)CNC(=O)c2cccc(C(=O)NCC(=O)N[C@H]3C[C@@H](C(=O)N[C@@H]4CCCc5ccccc54)N(C(=O)[C@@H](NC(=O)[C@H](C)NC)C(C)(C)C)C3)c2)CC1C(=O)N[C@@H]1CCCc2ccccc21)C(C)(C)C` (stereo partly drawn) [Compound 37], the concentration for a half-maximal effect (EC50) (read-out: SKOV-3 EC50) was over 1 µM.

Regarding `CN[C@@H](C)C(=O)N[C@H](C(=O)N1C[C@@H](NC(=O)CNC(=O)c2ccc(-c3ccc(C(=O)NCC(=O)N[C@H]4C[C@@H](C(=O)N[C@@H]5CCCc6ccccc65)N(C(=O)[C@@H](NC(=O)[C@H](C)NC)C(C)(C)C)C4)cc3)cc2)C[C@H]1C(=O)N[C@@H]1CCCc2ccccc21)C(C)(C)C` [Compound 38], the half-maximal effective concentration (EC50) (read-out: SKOV-3 EC50) is under 0.25 µM.

For `CN[C@@H](C)C(=O)N[C@H](C(=O)N1C[C@@H](NS(=O)(=O)c2ccc(-c3ccc(S(=O)(=O)N[C@H]4C[C@@H](C(=O)N[C@@H]5CCCc6ccccc65)N(C(=O)[C@@H](NC(=O)[C@H](C)NC)C(C)(C)C)C4)cc3)cc2)C[C@H]1C(=O)NC1CCCc2ccccc21)C(C)(C)C` (stereo partly drawn) [Compound 39], the 50% effective concentration (EC50) (read-out: SKOV-3 EC50) is under 0.05 µM.

For the origin of these results see US9365614B2, “IAP BIR domain binding compounds” (priority 2006, dated 2016).
